The values that follow come from US4110626A, “Method for improving the quality of the fragrance of perfumes using aliphatic dibasic acid diesters” (Shiseido Co., Ltd., priority 1976, dated 1978).

Counter-ions that a name gives are not always drawn.

The nature of series [1]: Acute oral toxicity (LD50). As to conditions: for LD50: acute oral toxicity.
Series [2] is described as follows: Fixing effect: HS-GC (II), analysis of volatilized portion after standing 15 minutes. In kind it is physicochemical. The following applies: controlling agent 15%, model perfume 5%. The procedure:
(§1) Then, the fixing effect was evaluated by a second head space gas chromatographic (II) method (HS-GC (II)). Specifically, a perfume containing 0.7 g of a perfume controlling agent was coated on a sheet of paper having a predetermined thickness, area (11.5 × 7.5 cm), and weight (about 2.9 g). The coated paper was allowed to stand for 15 minutes in an open space in a room (6 × 4 × 2.5 m) maintained at a humidity of 50% at a ventilation rate of 1,500 m^3 /hr. The paper was then transferred into a 1,000 ml Erlenmeyer flask, and the flask was tightly sealed. After a lapse of 15 minutes, the volatilized portion was collected and analyzed by gas chromatography under the conditions shown Table A above. Furthermore, the residue on the paper was extracted with acetone, and analyzed by gas chromatography using conditions shown in Table B below.
(§2) The composition of the model perfume used was as follows:
Model Perfume: 5% by weight
95% Ethanol: 95% by weight
The composition of the perfume containing a perfume controlling agent was as follows:
Perfume Controlling Agent: 15% by weight
95% Ethanol: 80% by weight

For a further series, the system named is Pseudomonas aeruginosa. Kind of series: Microorganism assimilation. The following applies: for OD (turbidity): 660 nm; for Assimilation by microorganism: conclusion from Table 8.
A further series has as its system skin of an albino rabbit. As to the kind of experiment: Primary irritation of the skin of an albino rabbit. In kind it is in vivo. The following applies: 0.3 ml, intact and abraded area, 24 hours. As for the experimental part:
The primary irritation of the skin of an albino rabbit was determined by adhering 0.3 ml of a test agent on a lint cloth patch, applying the cloth to an intact area and an abraded area of the skin of the back of the albino rabbit, and evaluating the skin reactions at these two areas after a lapse of 24 hours. Then, an overall evaluation was made.

A short description of series [3]: Stabilizing effect on octanal (APHA color). In kind it is physicochemical. The following applies: 37° C, 1 month; original APHA 15; 50% controlling agent added or octanal alone. The procedure:
Octanal was selected as a single perfume, and the stabilizing effect of the perfume controlling agent was determined.
Amount of Perfume Controlling Agent: 50% based on the octanal (in the case of both DIBA and DIAA)
Test Temperature and Period: 37° C, one month (checked every week)
Items Evaluated: Acid value (AV), carbonyl value (COV), APHA color
In the test, a 100 ml brown bottle boiled in water for 12 hours was used, and the head space of the bottle was purged with nitrogen gas after the octanal had been introduced into the bottle.
Specifically, the color of a solution obtained by diluting 1 ml of a standard original color liquid (octanal) with water exactly to a volume of 100 ml is taken as APHA No. 5, and the APHA color number is increased by a multiple of 5 (as 10, 15, 20 . . . ) for every 1 ml increase of the original liquid.

The subject of the next series is skin of a guinea pig. As to the kind of experiment: Cumulative irritation on the skin of a guinea pig. The following applies: 0.3 ml three times at 24 hour intervals, intact skin. Format: in vivo. As for the experimental part:
The cumulative irritation on the skin of a guinea pig was evaluated by coating 0.3 ml of a test agent on intact skin of the guinea pig and judging the skin reaction after a lapse of 24 hours, then coating the test agent in an amount of 0.3 ml on the same site twice, each at 24 hour intervals, and judging the reaction of the skin after a lapse of 72 hours (after coating three times).

Series [4] in a line: Fixing effect: analysis of residue on paper after standing 15 minutes. Format: physicochemical. The procedure: as §1
Column: 5% FFAP (free fatty acid polyester; a trade name for a product of Nippon Chromato Co., Ltd.) on diatomaceous earth (2m)
Column Temperature: 80° C (5 minutes, isothermal) to 220° C (4° C/min.)
Injector Temperature: 260° C
Detector Temperature: 260° C
Detector: Flame Ionization Detector
Carrier Gas: He (40 ml/min.)
as §2
The values shown in Table 5 above were obtained by calculating the areas of the perfumes while the area of musk ketone measured by gas chromatography was taken as 1. (This calculating procedure was adopted because musk ketone has a high boiling point, and scarcely volatilizes at 30° C.)

[5] abbreviates: Linalyl Acetate (not present: 39.0%).
Where [6] appears, read: Musk ketone (not present: 0.0%).
Setting [7] is: Citral (not present: 1.5), area of musk ketone taken as 1.
[8] abbreviates: Limonene (not present: 0.3), area of musk ketone taken as 1.
Where [9] appears, read: Linalool (not present: 6.4), area of musk ketone taken as 1.
[10] abbreviates: Linalyl Acetate (not present: 5.1), area of musk ketone taken as 1.
The mark [11] stands for this setting: Musk Ketone (reference, taken as 1; not present: 1.0).
Setting [12] is: Pinene (not present: 0.0), area of musk ketone taken as 1.

Procedure for Pseudomonas aeruginosa: 100 ml of the above liquid medium was placed in a 500 ml Sakaguchi flask, and sterilized at 120° C for 15 minutes in an autoclave in a customary manner. After cooling, the culture medium was inoculated with a prescribed amount of a suspension of the pre-cultured microorganism and cultivated at 30° C with shaking 120 times per minute.
Changes with time in the pH, turbidity, number of living cells were determined.
The turbidity was determined as follows: 2 ml of the culture broth was collected, and the precipitate was separated with a centrifugal separator. The precipitate was washed with acetone, and suspended in 2 ml of distilled water. The turbidity (OD) of the suspension at 660 nm was measured.

For the molecule `CCOC(=O)CC(O)(CC(=O)OCC)C(=O)OCC` [Triethyl Citrate], the LD50 in series [1] is more than 25 mL/kg.
With `CCOC(=O)c1ccccc1C(=O)OCC` [Diethyl Phthalate, diethyl phthalate], the “Analysis of Volatilized Portion after Standing 15 Minutes (HS-GC (II) Method)” value (from here on “Analysis of Volatilized Portion”) in series [2] (Citral (not present: 3.5%)) was found to be 1.2%; in series [2] (Limonene (not present: 2.6%)), 31.3%; in series [2] (Linalool (not present: 45.2%)) it was 40.5%; in series [2] (setting [5]), 18.4%; in series [2] (setting [6]), 0.0%; in series [2] (Pinene (not present: 0.2%)) it was 0.9%. Further, the pH in the series on Pseudomonas aeruginosa (0 days elapsed), with Pseudomonas aeruginosa (2 days elapsed), in the series on Pseudomonas aeruginosa (7 days elapsed) and with Pseudomonas aeruginosa (14 days elapsed) was 6.86 in each case. Also, the “Number of Living Cells” value in the series on Pseudomonas aeruginosa (2 days elapsed) was 2.5 × 10^6; in the series with Pseudomonas aeruginosa (7 days elapsed), 4.2 × 10^4; in the series with Pseudomonas aeruginosa (14 days elapsed) it was 5.2 × 10^5. The “OD (turbidity)” value with Pseudomonas aeruginosa (2 days elapsed) is 0.001; in the series on Pseudomonas aeruginosa (7 days elapsed), 0.001; in the series on Pseudomonas aeruginosa (14 days elapsed), 0. The Assimilation by microorganism entry in the series on Pseudomonas aeruginosa is recorded as “not assimilated”.
`CCCCCCCCCCCCCC(=O)OC(C)C` [Isopropyl Myristate] came in with an LD50 in series [1] of more than 25 mL/kg.
In the case of `CCCCC(CC)COC(=O)CCCCC(=O)OCC(CC)CCCC` (centres unmarked) [Di-2-ethylhexyl Adipate, di-2-ethylhexyl adipate], the pH is reported as 6.86 with Pseudomonas aeruginosa (0 days elapsed), 6.60 in the series with Pseudomonas aeruginosa (2 days elapsed), 6.30 in the series on Pseudomonas aeruginosa (7 days elapsed) and 6.10 in the series with Pseudomonas aeruginosa (14 days elapsed). In addition, the figures for the “Number of Living Cells” value with Pseudomonas aeruginosa (2 days elapsed), with Pseudomonas aeruginosa (7 days elapsed) and in the series with Pseudomonas aeruginosa (14 days elapsed) were 1.3 × 10^6, 5.0 × 10^7 and 1.4 × 10^9, respectively. In addition, the results for the “OD (turbidity)” value in the series on Pseudomonas aeruginosa (2 days elapsed), in the series with Pseudomonas aeruginosa (7 days elapsed) and with Pseudomonas aeruginosa (14 days elapsed) were 0.008, 0.01 and 0.15, respectively. The Assimilation by microorganism entry in the series on Pseudomonas aeruginosa is “gradually assimilated as time passed”.
With `CC(C)CCOC(=O)CCCCC(=O)OCCC(C)C` (single isomer, unassigned) [DIAA, diisoamyl adipate], the “Primary irritation of the skin” value in the series on skin of an albino rabbit is reported as “did not exhibit irritating effects”. Besides, the “APHA color of octanal” value in series [3] is recorded as “about 30 APHA”. Besides, the LD50 in series [1] is more than 25 mL/kg. Also, the “Acute toxicity compared with conventional perfume controlling agents” value in series [1] (conclusion from Table 1) is “equal to, or lower than, other conventional perfume controlling agents”. Also, the pH in the series on Pseudomonas aeruginosa (0 days elapsed) came to 6.90; in the series on Pseudomonas aeruginosa (2 days elapsed), 4.74; in the series on Pseudomonas aeruginosa (7 days elapsed), 4.40; with Pseudomonas aeruginosa (14 days elapsed), 4.30. Also, the “Number of Living Cells” value was 1.6 × 10^6 in the series with Pseudomonas aeruginosa (2 days elapsed), < 10^2 in the series with Pseudomonas aeruginosa (7 days elapsed) and < 10^2 with Pseudomonas aeruginosa (14 days elapsed). Moreover, the “OD (turbidity)” value is recorded as 0.105 in the series on Pseudomonas aeruginosa (2 days elapsed), 0.05 in the series with Pseudomonas aeruginosa (7 days elapsed) and 0.055 in the series on Pseudomonas aeruginosa (14 days elapsed). Further, in the series on Pseudomonas aeruginosa, the Assimilation by microorganism entry was “assimilated very well”. Besides, the “Cumulative irritation on the skin” value in the series with skin of a guinea pig is recorded as “did not exhibit irritating effects”.
With `CC(O)CO` (centres unmarked) [Propylene Glycol], the LD50 in series [1] was found to be 23.9 mL/kg.
Consider `O=C(OCc1ccccc1)c1ccccc1` [Benzyl Benzoate, benzyl benzoate], for which the “Analysis of Volatilized Portion” value is on record as 1.6% in series [2] (Citral (not present: 3.5%)); 31.3% in series [2] (Limonene (not present: 2.6%)); 37.7% in series [2] (Linalool (not present: 45.2%)); 20.6% in series [2] (setting [5]); 0.0% in series [2] (setting [6]); 1.3% in series [2] (Pinene (not present: 0.2%)). The Analysis of Residue on Paper after Standing 15 Minutes (Area Ratio) was 1.8 in series [4] (setting [7]); 0.38 in series [4] (setting [8]); 8.1 in series [4] (setting [9]); 8 in series [4] (setting [10]); 1 in series [4] (setting [11]); 0 in series [4] (setting [12]).
For `CC(C)OC(=O)CCCCC(=O)OC(C)C` [Diisopropyl Adipate, diisopropyl adipate], the pH was found to be 6.90 in the series on Pseudomonas aeruginosa (0 days elapsed), 6.90 in the series on Pseudomonas aeruginosa (2 days elapsed), 5.32 with Pseudomonas aeruginosa (7 days elapsed) and 4.22 with Pseudomonas aeruginosa (14 days elapsed). Besides, the “Number of Living Cells” value with Pseudomonas aeruginosa (2 days elapsed) is 4.0 × 10^5; in the series on Pseudomonas aeruginosa (7 days elapsed), 1.9 × 10^7; in the series on Pseudomonas aeruginosa (14 days elapsed), < 10^3. Also, the “OD (turbidity)” value worked out at 0.005 with Pseudomonas aeruginosa (2 days elapsed), 0.26 with Pseudomonas aeruginosa (7 days elapsed) and 0.46 in the series with Pseudomonas aeruginosa (14 days elapsed). In the series with Pseudomonas aeruginosa, the Assimilation by microorganism result is on record as “assimilated very well”.
As to dipropylene glycol, the “Analysis of Volatilized Portion” value worked out at 3.7% in series [2] (Citral (not present: 3.5%)); 2.7% in series [2] (Limonene (not present: 2.6%)); 42.8% in series [2] (Linalool (not present: 45.2%)); 40.0% in series [2] (setting [5]); 0.0% in series [2] (setting [6]); 0.2% in series [2] (Pinene (not present: 0.2%)). The Analysis of Residue on Paper after Standing 15 Minutes (Area Ratio) in series [4] (setting [7]) was found to be 1.1; in series [4] (setting [8]), 0; in series [4] (setting [9]), 4.9; in series [4] (setting [10]), 4.1; in series [4] (setting [11]), 1; in series [4] (setting [12]), 0. The molecule also had an LD50 in series [1] of 17.6 mL/kg. Also, the pH in the series on Pseudomonas aeruginosa (0 days elapsed) is 6.84; in the series with Pseudomonas aeruginosa (2 days elapsed) it was 6.84; with Pseudomonas aeruginosa (7 days elapsed), 6.82; with Pseudomonas aeruginosa (14 days elapsed) it was 6.82. Further, the entries for the “Number of Living Cells” value in the series on Pseudomonas aeruginosa (2 days elapsed), in the series on Pseudomonas aeruginosa (7 days elapsed) and with Pseudomonas aeruginosa (14 days elapsed) were 3.1 × 10^6, 7.2 × 10^7 and 4.7 × 10^6, respectively. Besides, the “OD (turbidity)” value in the series on Pseudomonas aeruginosa (2 days elapsed) came out at 0; in the series on Pseudomonas aeruginosa (7 days elapsed), 0.005; with Pseudomonas aeruginosa (14 days elapsed) it was 0. Besides, the Assimilation by microorganism entry in the series with Pseudomonas aeruginosa is reported as “not assimilated”.
On to `CCCCCCCC=O` [octanal], for which the “APHA color of octanal” value in series [3] is reported as more than 300 APHA.
